{"source": "patent US20130072505A1", "about": "“6,9-Disubstituted Purine Derivatives and Their Use for Treating Skin” (priority 2006, published 2013)", "tested_on": "photodamaged facial skin", "assay": "clinical study of topical treatment of photodamaged facial skin, 12 weeks", "type": "in vivo, human", "details": "for investigator's assessment of overall improvement in skin condition (relative to baseline): 6-point scale (1=excellent improvement to 5=no improvement; 6=worse); for investigator's assessment of overall skin condition: 10 point scale (0=None; 1-3=Mild; 4-6=Moderate; 7-9=Severe); for Mean Improvement from Baseline: TEWL / Mean Improvement from Baseline: Coarse Wrinkles / Mean Improvement from Baseline: Fine Wrinkles / Mean Improvement from Baseline: Mottled Hyperpigmentation / Mean Improvement from Baseline: Overall Skin Condition / Mean Improvement from Baseline: Roughness / Subjects Reporting Improvement from Baseline: Blotchiness / Subjects Reporting Improvement from Baseline: Color / Subjects Reporting Improvement from Baseline: Fine Wrinkles / Subjects Reporting Improvement from Baseline: Texture: 0.10% topical; for Mean Improvement from Baseline: Coarse Wrinkles / Mean Improvement from Baseline: Fine Wrinkles / Mean Improvement from Baseline: Mottled Hyperpigmentation / Mean Improvement from Baseline: Overall Skin Condition / Mean Improvement from Baseline: Roughness: expert evaluation; for Subjects Reporting Improvement from Baseline: Blotchiness / Subjects Reporting Improvement from Baseline: Color / Subjects Reporting Improvement from Baseline: Fine Wrinkles / Subjects Reporting Improvement from Baseline: Texture: self assessment; for Skin Moisture / TEWL: 0.10% in MillCreek Lotion twice daily", "excerpt": "A clinical study has been conducted to determine the cosmetic efficacy and subjects' tolerance of topical 6-furfurylamino-9-(2-tetrahydropyranyl)purine (0.10%) applied twice daily for 12 weeks to improve the clinical signs and symptoms of photodamaged facial skin. Forty female volunteer subjects age 40 to 65 with mild to moderate signs of photo damaged facial skin were enroled in the study. Thirty four subjects competed the study; the mean age of subjects competing the study was about 54 years. Subjects were instructed to apply the test product to the entire facial skin twice daily (i.e., early morning and approximately 1 hour before bedtime) for 12 consecutive weeks. Subjects were also instructed that, other than sunscreens or mild cleansers and use of color cosmetics, no other topical skin care products or medications were to be used on the face during the study. The test product comprised 0.1 percent 6-furfurylamino-9-(2-tetrahydropyranyl)purine in MillCreek Lotion as vehicle.\nSubjects were assessed at weeks 2, 4, 8, and 12. The treated facial skin was evaluated for clinical signs of skin aging (e.g., coarse and fine wrinkles, roughness, mottled hyperpigmentation) at study entry (baseline) as well as 2, 4, 8 and 12 weeks. The subjects' self-assessment of improvement over baseline (wrinkles, texture, blotchiness, color, and overall improvement) were also obtained. In addition, transepidermal water loss (TEWL) and skin moisture measurements were taken on the cheeks of all subjects.\nTEWL refers to the amount of water vapor loss through the stratum corneum. […] TEWL measurements were taken using a TEWL meter (Courage & Khazaka, Köln, Germany) having composed of a probe (containing humidity and temperature sensors) connected to a central processing unit. For each subject, the probe was placed in the center of both cheeks and measurements taken in duplicate.\nAn indirect measurement of the skin's moisture content was made by measuring changes in the skin's electrical properties. Impedance based capacitance measurements were taken on the skin using a NOVA DPM 9003® (NOVA Technologies, Gloucester, Mass., USA). The instrument performs measurements at varying preselected frequencies (up to 1 MHz) of the applied alternating current. A value directly related to capacitance is determined in arbitrary units; a higher value indicates a greater capacitance which indicates an increased level of moisture at the test site. Measurements in triplicate were taken in the center of both cheeks for each test subject.\nAt the baseline (Day 0) visit, an investigator evaluated each subject's face for the presence of fine wrinkles, coarse wrinkles, roughness, mottled hyperpigmentation, and other parameters using a five-point scale (0=None; 1=Minimal; 2=Mild; 3=Moderate; and 4=Severe). The overall severity of skin photodamage (wrinkles, roughness and mottled hyperpigmentation) was evaluated using a 10 point scale (0=None; 1-3=Mild; 4-6=Moderate; and 7-9=Severe); subjects with baseline severity scores greater than 6 were excluded from the study.\nOn each subsequent visit, the investigator evaluated overall improvement compared to baseline using a 6-point scale (1=excellent improvement; 2=marked improvement; 3=moderate improvement; 4=slight improvement; 5=no improvement; and 6=worse).\nAt each subsequent visit, the subjects were asked to complete a self-assessment questionnaire to assess the improvement from baseline for skin texture, skin color, blotchiness (i.e., brown spots), fine wrinkles; and overall improvement using a five-point scale (1=much improved; 2=somewhat improved; 3=no change; 4=somewhat worse; and 5=much worse).\nThis Example compares the clinical data for topically applied 6-furfurylamino-9-(2-tetrahydropyranyl)purine (0.10%) taken from Example 23 with similar clinical data generated for topically applied kinetin (0.1%) from an earlier study. […]", "key": {"[1]": {"details": "Week 2, investigator, five-point scale 0=None to 4=Severe"}, "[2]": {"details": "Week 2, subjects' self assessment, five-point scale 1=much improved to 5=much worse"}, "[3]": {"details": "Week 4, investigator, five-point scale 0=None to 4=Severe"}}, "note": "Marks after values point to notes of the source that are not given here.", "data": [{"smiles": "c1coc(CNc2ncnc3c2ncn3C2CCCCO2)c1", "note": "(centres unmarked) [6-furfurylamino-9-(2-tetrahydropyranyl)purine]", "values": [{"measurement": "overall skin condition, change relative to baseline", "setting": "2 weeks", "value": "−1.22", "unit": "%"}, {"measurement": "investigator's assessment of overall improvement in skin condition (relative to baseline)", "setting": "2 weeks", "value": 4.95}, {"measurement": "investigator's assessment of overall skin condition", "setting": "2 weeks", "value": 4.05}, {"measurement": "overall improvement, change relative to 2 week data", "setting": "4 weeks", "value": "−10.61", "unit": "%"}, {"measurement": "overall skin condition, change relative to baseline", "setting": "4 weeks", "value": "−15.23", "unit": "%"}, {"measurement": "investigator's assessment of overall improvement in skin condition (relative to baseline)", "setting": "4 weeks", "value": 4.44}, {"measurement": "investigator's assessment of overall skin condition", "setting": "4 weeks", "value": 3.56}, {"measurement": "overall improvement, change relative to 2 week data", "setting": "8 weeks", "value": "−16.67", "unit": "%"}, {"measurement": "overall skin condition, change relative to baseline", "setting": "8 weeks", "value": "−24.32", "unit": "%"}, {"measurement": "investigator's assessment of overall improvement in skin condition (relative to baseline)", "setting": "8 weeks", "value": 4.11}, {"measurement": "investigator's assessment of overall skin condition", "setting": "8 weeks", "value": 3.20}, {"measurement": "overall improvement, change relative to 2 week data", "setting": "12 weeks", "value": "−17.16", "unit": "%"}, {"measurement": "overall skin condition, change relative to baseline", "setting": "12 weeks", "value": "−27.97", "unit": "%"}, {"measurement": "investigator's assessment of overall improvement in skin condition (relative to baseline)", "setting": "12 weeks", "value": 4.12}, {"measurement": "investigator's assessment of overall skin condition", "setting": "12 weeks", "value": 3.03}, {"measurement": "Mean Improvement from Baseline: TEWL", "setting": "Eight Week Data", "value": 1, "unit": "%"}, {"measurement": "Mean Improvement from Baseline: Coarse Wrinkles", "setting": "Eight Week Data", "value": 7, "unit": "%"}, {"measurement": "Mean Improvement from Baseline: Fine Wrinkles", "setting": "Eight Week Data", "value": 22, "unit": "%*"}, {"measurement": "Mean Improvement from Baseline: Mottled Hyperpigmentation", "setting": "Eight Week Data", "value": 31, "unit": "%*"}, {"measurement": "Mean Improvement from Baseline: Overall Skin Condition", "setting": "Eight Week Data", "value": 24, "unit": "%*"}, {"measurement": "Mean Improvement from Baseline: Roughness", "setting": "Eight Week Data", "value": 86, "unit": "%*"}, {"measurement": "Subjects Reporting Improvement from Baseline: Blotchiness", "setting": "Eight Week Data", "value": 60, "unit": "%"}, {"measurement": "Subjects Reporting Improvement from Baseline: Color", "setting": "Eight Week Data", "value": 66, "unit": "%"}, {"measurement": "Subjects Reporting Improvement from Baseline: Fine Wrinkles", "setting": "Eight Week Data", "value": 83, "unit": "%"}, {"measurement": "Subjects Reporting Improvement from Baseline: Texture", "setting": "Eight Week Data", "value": 83, "unit": "%"}, {"measurement": "Mean Improvement from Baseline: TEWL", "setting": "Twelve Week Data", "value": 28, "unit": "%"}, {"measurement": "Mean Improvement from Baseline: Coarse Wrinkles", "setting": "Twelve Week Data", "value": 14, "unit": "%*"}, {"measurement": "Mean Improvement from Baseline: Fine Wrinkles", "setting": "Twelve Week Data", "value": 28, "unit": "%*"}, {"measurement": "Mean Improvement from Baseline: Mottled Hyperpigmentation", "setting": "Twelve Week Data", "value": 41, "unit": "%*"}, {"measurement": "Mean Improvement from Baseline: Overall Skin Condition", "setting": "Twelve Week Data", "value": 28, "unit": "%*"}, {"measurement": "Mean Improvement from Baseline: Roughness", "setting": "Twelve Week Data", "value": 84, "unit": "%*"}, {"measurement": "Subjects Reporting Improvement from Baseline: Blotchiness", "setting": "Twelve Week Data", "value": 63, "unit": "%"}, {"measurement": "Subjects Reporting Improvement from Baseline: Color", "setting": "Twelve Week Data", "value": 68, "unit": "%"}, {"measurement": "Subjects Reporting Improvement from Baseline: Fine Wrinkles", "setting": "Twelve Week Data", "value": 88, "unit": "%"}, {"measurement": "Subjects Reporting Improvement from Baseline: Texture", "setting": "Twelve Week Data", "value": 88, "unit": "%"}, {"measurement": "Acne Change Relative to Baseline", "setting": "Week 2", "value": "−4.00", "unit": "%"}, {"measurement": "Coarse Wrinkles Change Relative to Baseline", "setting": "Week 2", "value": 4.44, "unit": "%"}, {"measurement": "Erythema Change Relative to Baseline", "setting": "Week 2", "value": "−33.33", "unit": "%"}, {"measurement": "Mottled Hyperpigmentation Change Relative to Baseline", "setting": "Week 2", "value": "−1.45", "unit": "%"}, {"measurement": "Roughness Change Relative to Baseline", "setting": "Week 2", "value": "−37.31", "unit": "%"}, {"measurement": "Skin Irritation Change Relative to Baseline", "setting": "Week 2", "value": 0}, {"measurement": "Skin Moisture Change Relative to Baseline", "setting": "Week 2", "value": 6.22, "unit": "%"}, {"measurement": "TEWL Change Relative to Baseline", "setting": "Week 2", "value": "−1.98", "unit": "%"}, {"measurement": "Skin Moisture", "setting": "Week 2", "value": "125.37* arbitrary units"}, {"measurement": "TEWL", "setting": "Week 2", "value": 12.89, "unit": "g/m^2/hr"}, {"measurement": "Fine Wrinkles Change Relative to Baseline", "setting": "Week 2, investigator", "value": "−1.28", "unit": "%"}, {"measurement": "Acne", "setting": "[1]", "value": 0.60}, {"measurement": "Coarse Wrinkles", "setting": "[1]", "value": 2.35}, {"measurement": "Erythema", "setting": "[1]", "value": "0.40^††"}, {"measurement": "Fine Wrinkles", "setting": "[1]", "value": 2.18}, {"measurement": "Mottled Hyperpigmentation", "setting": "[1]", "value": 1.70}, {"measurement": "Roughness", "setting": "[1]", "value": "1.05*"}, {"measurement": "Skin Irritation", "setting": "[1]", "value": 0}, {"measurement": "Blotchiness/Brown Spots", "setting": "[2]", "value": 2.70}, {"measurement": "Fine Wrinkles", "setting": "[2]", "value": 2.62}, {"measurement": "Overall Improvement", "setting": "[2]", "value": 2.36}, {"measurement": "Skin Color", "setting": "[2]", "value": 2.74}, {"measurement": "Skin Texture", "setting": "[2]", "value": 2.21}, {"measurement": "Acne Change Relative to Baseline", "setting": "Week 4", "value": "−13.64", "unit": "%"}, {"measurement": "Coarse Wrinkles Change Relative to Baseline", "setting": "Week 4", "value": "−4.76", "unit": "%"}, {"measurement": "Erythema Change Relative to Baseline", "setting": "Week 4", "value": "−47.62", "unit": "%"}, {"measurement": "Mottled Hyperpigmentation Change Relative to Baseline", "setting": "Week 4", "value": "−15.63", "unit": "%"}, {"measurement": "Roughness Change Relative to Baseline", "setting": "Week 4", "value": "−63.79", "unit": "%"}, {"measurement": "Skin Irritation Change Relative to Baseline", "setting": "Week 4", "value": 0}, {"measurement": "Skin Moisture Change Relative to Baseline", "setting": "Week 4", "value": 20.96, "unit": "%"}, {"measurement": "TEWL Change Relative to Baseline", "setting": "Week 4", "value": "−9.62", "unit": "%"}, {"measurement": "Skin Moisture", "setting": "Week 4", "value": "141.30* arbitrary units"}, {"measurement": "TEWL", "setting": "Week 4", "value": "11.70* g/m^2/hr"}, {"measurement": "Fine Wrinkles Change Relative to Baseline", "setting": "Week 4, investigator", "value": "−11.25", "unit": "%"}, {"measurement": "Acne", "setting": "[3]", "value": 0.53}, {"measurement": "Coarse Wrinkles", "setting": "[3]", "value": 2.22}]}]}
